{"source": "patent US20130324707A1", "about": "“SYNTHETIC AMPHIPHILES FOR MEMBRANE PROTEIN MANIPULATION” (The Board of Trustees of the Leland Stanford Junior …, priority 2009, published 2013)", "key": {"[1]": {"tested_on": "human β2 adrenergic receptor-T4-lyosome fusion protein (β2AR-T4L)", "test": "Thermal stabilization (Tm) of β2AR-T4L in amphiphile, normalized peak ratio 341 nm/356 nm", "parameters": "Tm: unit: °C", "details": "for Tm: β2AR-T4L", "text": "FIG. 3 illustrates the results of comparing MNGs to MPAs at 10×CMC for stabilization efficacy of β2 adrenergic receptor-T4-lyosome fusion protein (β2AR-T4L), according to an embodiment of the invention.\nFIG. 4 illustrates the results of comparing MNGs to MPAs at 50×CMC for stabilization efficacy of β2AR-T4L, according to an embodiment of the invention. Similar to FIG. 3, the horizontal dotted line extending from 50% on the y-axis in FIG. 4 indicates the melting temperature (Tm).\nThe branched amphiphiles of the invention have shown to have several advantageous properties that match or surpass those of many known amphiphiles. The branched nature provide improved stabilization, attributable to the dual saccharide chains, and improved solubilization, attributable to the dual hydrophobic tail groups. FIGS. 3 and 4 show a comparative study showing normalized peak ratios (341 nm/356 nm) for six different amphiphiles (illustrated in Schemes F and G) from 25° C. to 85° C., at 10×CMC and 50×CMC for human β2 adrenergic receptor-T4-lyosome fusion protein (β2AR-T4L)."}, "M3 muscarinic receptor": {"tested_on": "M3 muscarinic receptor", "test": "[3H]N-methylscopolamine binding to purified M3 muscarinic receptor in amphiphiles/detergents", "details": "for Binding (counts per minute (CPM)) of [3H]NMS compared to the use of DDM alone: upon addition of the amphiphile, HEPES pH 7.5, 100 mM NaCl", "description": "For FIG. 5, the samples (DDM, MNG-28, and MNG-14) were combined with HEPES pH 7.5 buffer in a 100 mM NaCl solution. […] Therefore, the amphiphilic compounds described herein, such as the MNG amphiphiles, provide new options for enhancing the function and analysis of various isolated and/or purified proteins and receptors."}, "[2]": {"tested_on": "human β2 adrenergic receptor-T4-lyosome fusion protein (β2AR-T4L)", "test": "Thermal stabilization (Tm) of β2AR-T4L in amphiphile, normalized peak ratio 341 nm/356 nm", "parameters": "Tm: unit: °C", "details": "250 × CMC; for Tm: β2AR-T4L"}, "β2AR": {"molecular_target": "β2AR (Homo sapiens, UniProt P07550)", "sequence (P07550 whole entry)": "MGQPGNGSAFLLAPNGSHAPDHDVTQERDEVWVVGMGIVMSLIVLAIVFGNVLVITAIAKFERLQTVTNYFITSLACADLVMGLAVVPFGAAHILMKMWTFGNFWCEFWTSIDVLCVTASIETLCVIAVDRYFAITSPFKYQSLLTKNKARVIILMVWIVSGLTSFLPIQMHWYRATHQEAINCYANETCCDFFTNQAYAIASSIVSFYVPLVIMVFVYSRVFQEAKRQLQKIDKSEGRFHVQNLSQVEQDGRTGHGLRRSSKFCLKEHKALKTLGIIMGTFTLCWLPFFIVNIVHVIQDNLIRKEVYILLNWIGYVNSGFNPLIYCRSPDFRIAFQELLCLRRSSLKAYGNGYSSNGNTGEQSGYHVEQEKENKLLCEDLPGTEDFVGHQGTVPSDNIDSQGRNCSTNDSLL", "test": "Lipidic cubic phase (LCP) crystallization of agonist-bound β2AR", "details": "detergent present before incorporation into LCP", "text": "LCP methods have proven useful for crystallizing membrane proteins, including G protein-coupled receptors (GPCRs). However, the process of incorporating membrane proteins from a detergent solubilized state into LCP can lead to denaturation of the protein."}, "[3]": {"tested_on": "R. capsulatus LHI-RC superassembly", "test": "R. capsulatus photosynthetic superassembly solubilization and purification assay (detergent classification)", "parameters": "species or system Rhodobacter capsulatus", "details": "words printed in the Classification column instead of a class: behaviour of the amphiphile", "description": "To begin the solubilization and purification process, frozen aliquots of R. capsulatus membranes were thawed, homogenized, and equilibrated to 32° C. for 30 minutes.\nThe membrane samples were allowed to incubate with the amphiphile for 30 minutes at 32° C. The solubilized material was then separated from the membrane debris in an ultracentrifuge at 315,000×g at 4° C. for 30 minutes. […] The tubes were then incubated and inverted for 1 hour at 4° C.\nOnce binding was complete, samples were loaded onto resin-retaining spin columns (e.g., emptied His Spin Trap™ columns; GE Healthcare). The columns were then inserted into a 2 mL microcentrifuge tube to retain the filtered solution during centrifugation. […] Finally, protein was eluted into a fresh microcentrifuge tube with three 0.2 mL elution buffer aliquots (this buffer was identical to binding buffer with the addition of 1 M imidazole).\nThe R. capsulatus LHI-RC complexes extracted and purified by this procedure contain large numbers of cofactors that have absorptions at distinct wavelengths, and each component of the LHI-RC superassembly has a different inherent stability outside the lipid bilayer. The solubilization protocol outlined above therefore provides a multifaceted assessment of the efficacy of conventional detergents and novel amphiphiles. UV-Vis absorption spectroscopy data obtained at various stages of the protocol allow one to determine which protein components have degraded at these stages. […] The disruption potential was measured as the yield of superassembly extracted during solubilization (or, alternatively and more precisely, as the absence of superassembly in the pellet from the spin following solubilization).\nThe stabilizing propensity was determined from the spectra of the purified protein."}, "[4]": {"test": "Critical micelle concentration (CMC) by fluorescent dye uptake", "assay_type": "physicochemical", "text": "The Critical Micelle Concentrations (CMCs) of compounds of the invention can be determined by standard techniques known to those of skill in the art. For example, CMCs of the carbohydrate-based amphiphiles described herein can be determined by monitoring uptake of a fluorescent dye (e.g., a dye such as 1,6-diphenylhexatriene) with increasing detergent concentration, monitored by fluorescence spectroscopy."}, "[5]": {"details": "10 × CMC, scan from 25° C. to 85° C."}, "[6]": {"details": "concentration not given, matches most favourable (*) Tm minus DDM 63.5"}}, "note": "Marks after values point to notes of the source that are not given here.", "data": [{"smiles": "CCCCCCCCCCCCO[C@@H]1O[C@H](CO)[C@@H](O[C@H]2O[C@H](CO)[C@@H](O)[C@H](O)[C@H]2O)[C@H](O)[C@H]1O", "note": "[DDM, dodecylmaltoside, reference compound]", "values": [{"measurement": "Tm", "setting": "[1]; [5]", "value": "63.5 (n = 4)*"}, {"measurement": "Tm", "setting": "[1]; 50 × CMC", "value": "63.0 (n = 4)"}, {"measurement": "Specific binding to [3H]N-methylscopolamine", "setting": "M3 muscarinic receptor; M3 receptor purified from baculovirus infected insect cells using the detergent", "value": "little specific binding"}, {"measurement": "Tm", "setting": "[2]", "value": "62.2 (n = 4)"}, {"measurement": "Outcome of LCP crystallization of agonist-bound β2AR", "setting": "β2AR", "value": "not sufficiently stable to survive the transition to LCP"}]}, {"smiles": "CC(C)(C)c1ccc(C(=O)NCC(CNC(=O)c2ccc(C(C)(C)C)cc2)(COC2OC(CO)C(O)C(O)C2O)COC2OC(CO)C(O)C(O)C2O)cc1", "note": "(stereo not drawn) [GNG-3]", "values": [{"measurement": "Classification (entry in words)", "setting": "[3]", "value": "aggregation"}]}, {"smiles": "O=C(NCC(CNC(=O)C1CCCCC1)(COC1OC(CO)C(O)C(O)C1O)COC1OC(CO)C(O)C(O)C1O)C1CCCCC1", "note": "(stereo not drawn) [GNG-5]", "values": [{"measurement": "Classification (entry in words)", "setting": "[3]", "value": "Insoluble"}]}, {"smiles": "CC(C)(C)c1ccc(OCC(COc2ccc(C(C)(C)C)cc2)(COC2OC(CO)C(O)C(O)C2O)COC2OC(CO)C(O)C(O)C2O)cc1", "note": "(stereo not drawn) [GNG-8]", "values": [{"measurement": "Classification (entry in words)", "setting": "[3]", "value": "aggregation"}]}, {"smiles": "CCCCCCCC(CCCCCCC)(COC1OC(CO)C(O)C(O)C1O)COC1OC(CO)C(O)C(O)C1O", "note": "(stereo not drawn) [GNG-9]", "values": [{"measurement": "Classification (entry in words)", "setting": "[3]", "value": "limited"}, {"measurement": "CMC", "setting": "[4]", "value": 0.11, "unit": "mM"}, {"measurement": "CMC (%)", "setting": "[4]", "value": 0.0066, "unit": "%"}]}, {"smiles": "CCCCCCCCCCOCC(COCCCCCCCCCC)(CO[C@H]1OC(CO)[C@H](O[C@@H]2OC(CO)[C@H](O)C(O)[C@H]2O)C(O)[C@H]1O)CO[C@H]1OC(CO)[C@H](O[C@@H]2OC(CO)[C@H](O)C(O)[C@H]2O)C(O)[C@H]1O", "note": "(stereo partly drawn) [MNG-6]", "values": [{"measurement": "ΔTm", "setting": "[1]; 10 × CMC, relative to DDM", "value": "+1.1"}, {"measurement": "Tm", "setting": "[1]; [5]", "value": "64.6 (n = 3)"}, {"measurement": "ΔTm", "setting": "[1]; 50 × CMC, relative to DDM", "value": "+4.1"}, {"measurement": "Tm", "setting": "[1]; 50 × CMC", "value": "67.1 (n = 3)*"}, {"measurement": "ΔTm", "setting": "[1]; [6]", "value": "+3.6"}, {"measurement": "CMC", "setting": "[4]", "value": 0.009, "unit": "mM"}, {"measurement": "CMC (%)", "setting": "[4]", "value": 0.00096, "unit": "%"}]}, {"smiles": "CCCCCCCCCCC(CCCCCCCCCC)(COC1OC(CO)C(OC2OC(CO)C(O)C(O)C2O)C(O)C1O)COC1OC(CO)C(OC2OC(CO)C(O)C(O)C2O)C(O)C1O", "note": "(stereo not drawn) [MNG-14]", "values": [{"measurement": "Stabilization of β2AR-T4L, comparison in words", "setting": "[1]; 10 times CMC and 50 times CMC", "value": "best overall properties for stabilizing β2AR-T4L"}, {"measurement": "ΔTm", "setting": "[1]; 10 × CMC, relative to DDM", "value": "+3.9"}, {"measurement": "Tm", "setting": "[1]; [5]", "value": "67.4 (n = 3)"}, {"measurement": "ΔTm", "setting": "[1]; 50 × CMC, relative to DDM", "value": "+5.4"}, {"measurement": "Tm", "setting": "[1]; 50 × CMC", "value": "68.4 (n = 3)*"}, {"measurement": "ΔTm", "setting": "[1]; [6]", "value": "+4.9"}, {"measurement": "Binding (counts per minute (CPM)) of [3H]NMS compared to the use of DDM alone", "setting": "M3 muscarinic receptor", "value": "nine-fold higher"}, {"measurement": "ΔTm", "setting": "[2]; relative to DDM", "value": "+4.6"}, {"measurement": "Tm", "setting": "[2]", "value": "66.8 (n = 3)"}, {"measurement": "Outcome of LCP crystallization of agonist-bound β2AR", "setting": "β2AR", "value": "diffraction quality crystals were obtained"}, {"measurement": "CMC", "setting": "[4]", "value": 0.01, "unit": "mM"}, {"measurement": "CMC (%)", "setting": "[4]", "value": 0.001, "unit": "%"}]}, {"smiles": "CCCCCCCCCC(CCCCCCCCC)(COC1OC(CO)C(OC2OC(CO)C(O)C(O)C2O)C(O)C1O)COC1OC(CO)C(OC2OC(CO)C(O)C(O)C2O)C(O)C1O", "note": "(stereo not drawn) [MNG-28]", "values": [{"measurement": "Binding (counts per minute (CPM)) of [3H]NMS compared to the use of DDM alone", "setting": "M3 muscarinic receptor", "value": "three-fold greater"}, {"measurement": "CMC", "setting": "[4]", "value": 0.018, "unit": "mM"}, {"measurement": "CMC (%)", "setting": "[4]", "value": 0.0018, "unit": "%"}]}]}
